Data taken from PMC10578927, “An unconventional gatekeeper mutation sensitizes inositol hexakisphosphate kinases to an allosteric inhibitor” (eLife, 2023).

Columns and labels:
IP6K1^L210V [1] = biological target: T1, IP6K1^L210V (Homo sapiens, UniProt Q92551, L210V); test: NMR activity assay, [13C6]-InsP6 to 5PP-InsP5, with ATP-regenerating system; format: biochemical; conditions: for inhibition of IP6K1^L210V: 10 µM concentration
T1 construct: made in house; host or cells: E. coli Arctic Express
Source text: (§1) The gatekeeper mutants L210G and L210A of IP6K1 were generated by site-directed mutagenesis and the enzymes were recombinantly expressed, analogous to the WT kinase, as MBP-fusion proteins. To assess their catalytic activity, we used an NMR assay that harnesses fully ^13C-labeled InsP6 as a substrate and enables direct product readout of 5PP-InsP5 (Figure 2b and Figure 2—figure supplement 1; [Puschmann et al., 2019]; [Harmel et al., 2019]). […] Likewise, IP6K2 suffered a drastic decline in substrate turnover upon gatekeeper mutation to glycine (Figure 2—figure supplement 2).
(§2) The NMR assay for IP6K activity was performed similarly as described before ([Harmel et al., 2019]) with slight alterations. Enzyme assays were performed in D2O in a total volume of 150 µl containing 20 mM 4-(2-hydroxyethyl)-1-piperazineethanesulfonic acid (HEPES) pH* 6.8, 50 mM NaCl, 6 mM MgCl2, 1 mM ATP, 0.2 mg/ml BSA, 1 mM DTT, 5 mM creatine phosphate and 1 U/ml creatine kinase (ATP-regenerating system) and 50 nM kinase if not otherwise stated. HEPES, NaCl, and BSA were prepared as buffer A and DTT and creatine phosphate as buffer B in D2O and were adjusted to pH* 6.8, respectively. If applicable, inhibitor was added as a DMSO-d6 stock in a twofold dilution series at a final DMSO concentration of 1% if not otherwise mentioned. Otherwise, DMSO-d6 was added to the same percentage. The samples were equilibrated at 37°C for 3 min and the reaction initiated by adding 100 µM [^13C6]-InsP6.

IP6K1^L210V [2] = biological target: T1, IP6K1^L210V; test: Michaelis–Menten and Lineweaver–Burk kinetics (NMR); format: biochemical; conditions: Michaelis–Menten, read-out: KM for ATP
Experimental: (§3) Kinetic assays were performed in D2O in a total volume of 500 µl containing the same buffer components for IP6K and IP6KA constructs as stated for the NMR activity assays above. […] If applicable, inhibitor was added as a DMSO-d6 stock at a final DMSO concentration of 1%. Otherwise, DMSO-d6 was added to the same percentage. The samples were equilibrated at 37°C for 5 min and the reaction initiated by adding 100 µM [^13C6]-InsP6. The reaction time was adjusted so that conversion would not exceed 20% to remain in the linear range for initial velocity measurements. The reaction was quenched with 38 µl 700 mM EDTA pH* 8.0 and transferred into an NMR tube before being measured on a Bruker […] 600 PLUS with an NMR pulse program developed previously ([Harmel et al., 2019]). Initial velocities were calculated by dividing the amount of generated product by the product of reaction time in seconds and mass of the kinase in mg.

IP6K1^wt [3] = biological target: T2, IP6K1^wt (Homo sapiens, UniProt Q92551); test: as above; format: biochemical
T2 construct: made in house; host or cells: E. coli Arctic Express
Experimental: as §3

IP6K1^wt [4] = biological target: T2, IP6K1^wt; test: NMR activity assay, [13C6]-InsP6 to 5PP-InsP5, with ATP-regenerating system; format: biochemical
Source text: as §1, §2

IP6K = conditions: Figure 1b; ref Padmanabhan et al., 2009 (TNP); Wormald et al., 2019 (Barrow-24); Moritoh et al., 2021; Terao et al., 2018 (SC-919); cited from earlier work
IP6K1^wt [5] = biological target: T2, IP6K1^wt; test: High-throughput screen, reverse kinase reaction (5PP-InsP5 + ADP), Kinase-Glo luminescence; format: biochemical; conditions: dose-dependent reconfirmation
HEK293 = test: Cytotoxicity, cell survival after 72 hr incubation; format: cell-based; conditions: HEK293, 10 µM, 72 hr incubation
Experimental: (§4) Supplementary file elife-88982-supp2.xlsx: Supplementary file 2. Cytotoxicity of selected hits indicated by cell survival after 72 hr incubation at 10 µM concentration. All compounds were measured in independent triplicates and errors represent standard deviation. Redox activity of selected compounds measured via a photometric surrogate assay. Reactions contained 50 mM HEPES pH 7.5, 50 mM NaCl, 200 mM DTT, and 20 µM resazurin, and were incubated for 1 hr at 37°C.

HepG2 = test: Cytotoxicity, cell survival after 72 hr incubation; format: cell-based; conditions: HepG2, 10 µM, 72 hr incubation
Experimental: as §4

IP6K1^L210V [6] = biological target: T1, IP6K1^L210V; test: High-throughput screen, reverse kinase reaction (5PP-InsP5 + ADP), Kinase-Glo luminescence; format: biochemical
Source text: Although the NMR assay described above provides direct product detection and the ability to distinguish the PP-InsP isomers ([Harmel et al., 2019]), it is inherently slow and thus not compatible with a high-throughput screen. The use of luminescence-based readouts of ATP consumption to measure IP6K activity is error-prone due to the kinase’s unusually low affinity for ATP, the sensitivity to the ATP/ADP ratio, and its inherent ATPase activity ([Wundenberg et al., 2014]; [Voglmaier et al., 1996]). Nevertheless, we were able to take advantage of these properties by examining the reverse reaction of IP6K1 with the Kinase-Glo assay, where 5PP-InsP5 and ADP are converted to InsP6 and ATP (Figure 3a).
The following solutions were prepared as 4× stock solutions: kinase buffer (HEPES pH 7.4, NaCl, BSA, MgCl2, Tween-20, DTT, and IP6K1^L210V), DMSO/inhibitor, ADP, and 5PP-InsP5. Final concentrations after optimization were 1 mM ADP, 20 mM HEPES, 50 mM NaCl, 0.2 mg/ml BSA, 2 mM MgCl2, 0.05% Tween-20, 1 mM DTT, 250 nM IP6K1^L210V, and 50 μM 5PP-InsP5. The reactions were carried out in 384-well plates following this procedure. 5 µl 4× kinase buffer (buffer only for no kinase controls), 5 µl 4× DMSO or inhibitor and 5 µl 4× ADP solution were subsequently added to all wells. After 10 min equilibration, 5 μl 4× 5PP-InsP5 were added to start the reaction (milli-Q water for negative controls). After 3 hr at room temperature, 20 µl of Promega Kinase-Glo Plus reagent were added and the luminescence read out with a Tecan Infinite M Plex reader using 100-ms exposure time after 10 min of equilibration.
ADP was prepared in a 2× stock solution in milli-Q water and the pH adjusted to 7.0. The following solutions were prepared as 4× stock solutions: kinase buffer (HEPES pH 7.4, NaCl, BSA, MgCl2, Tween-20, DTT, and IP6K1^L210V) and 5PP-InsP5. Final concentrations were 1 mM ADP, 20 mM HEPES, 50 mM NaCl, 0.2 mg/ml BSA, 2 mM MgCl2, 0.05% Tween-20, 1 mM DTT, 250 nM IP6K1^L210V, and 50 µM 5PP-InsP5. The reactions were carried out in 384-well plates following this procedure. 10 µl 2× ADP solution were added to all wells, then 0.2 µl DMSO or compound (1 mM in DMSO) were added followed by the addition of 5 µl 4× kinase buffer. For dose–response curves, compounds were added in serial dilution (twofold serial dilutions in DMSO across multiple plates prior to compound transfer to assay plates, 9 concentrations in total). After 10 min equilibration, 5 µl 4× 5PP-InsP5 were added to start the reaction (milli-Q water for negative controls). After 3 hr at room temperature, 20 µl of Promega Kinase-Glo Plus reagent were added and the luminescence read out with a Tecan Infinite M Plex or Perkin Elmer EnVision reader using 100ms exposure time after 10 min of equilibration. In the counter screen, dose–response curves were measured in the absence of kinase and presence of 50 µM ATP.

T2 sequence (Q92551 whole entry): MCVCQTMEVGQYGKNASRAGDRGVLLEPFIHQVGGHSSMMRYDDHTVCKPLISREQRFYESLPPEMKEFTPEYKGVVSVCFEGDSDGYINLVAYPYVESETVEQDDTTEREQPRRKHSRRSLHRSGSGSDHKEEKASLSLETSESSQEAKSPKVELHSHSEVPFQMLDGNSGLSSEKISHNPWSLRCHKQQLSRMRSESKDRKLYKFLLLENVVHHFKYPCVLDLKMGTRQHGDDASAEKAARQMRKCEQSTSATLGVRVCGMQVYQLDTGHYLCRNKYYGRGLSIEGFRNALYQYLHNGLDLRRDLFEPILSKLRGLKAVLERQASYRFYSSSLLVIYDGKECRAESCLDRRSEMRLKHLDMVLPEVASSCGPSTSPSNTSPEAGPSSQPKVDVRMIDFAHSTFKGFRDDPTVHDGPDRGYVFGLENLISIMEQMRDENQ
T1 sequence (Q92551 whole entry L210V): as the sequence (Q92551 whole entry) above, with L210V counted along it

## O=C1c2ccccc2C(=O)N1c1ccc(-c2nc3ccc(N4C(=O)c5ccccc5C4=O)cc3[nH]2)cc1 [A1]
IP6K1^L210V [1]; NMR assay
  inhibition of IP6K1^L210V: completely inactive

## O=C(O)c1ccc2c(c1)C(=O)N(c1ccc(-c3nc4ccccc4[nH]3)cc1)C2=O [A2]
IP6K1^L210V [1]; NMR assay
  inhibition of IP6K1^L210V: inhibited IP6K1^L210V, albeit with severely reduced potency

## Nc1ncnc2c1ncn2[C@@H]1O[C@H](COP(=O)(O)OP(=O)(O)OP(=O)(O)O)[C@@H](O)[C@H]1O [ATP]
IP6K1^L210V [2]
  Km: 412 ± 81 µM
IP6K1^wt [3]; Michaelis–Menten, read-out: KM for ATP
  Km: 186 ± 23 µM

## Cn1c(=O)n(-c2ccc(C(C)(C)C#N)cc2)c2c3cc(-c4cnc5ccccc5c4)ccc3ncc21 [BEZ235, reference compound]
IP6K1^L210V [1]; NMR assay
  inhibition of IP6K1^L210V: inhibition of IP6K1^L210V was not observed either
IP6K1^wt [4]; 10 µM concentration
  inhibitory activity against IP6K1^wt: none of these compounds exhibited any inhibitory activity

## O=[N+]([O-])c1ccc(CNc2nc(NCc3cccc(C(F)(F)F)c3)nc3[nH]cnc23)cc1 [TNP, N2-(m-trifluorobenzyl)-N6-(p-nitrobenzyl)purine, reference compound]
IP6K1^wt [3]; versus ATP
  mechanism of inhibition (Lineweaver–Burk): competitive mechanism of action
IP6K
  IC50: 0.47 µM
IP6K1^L210V [1]; NMR IC50 curves
  difference in potency against IP6K1^wt and IP6K1^L210V: no significant difference in potency
IP6K1^L210V [1]; NMR assay, Figure 4—figure supplement 2b
  IC50: 1.41 µM
IP6K1^wt [4]; Figure 4—figure supplement 2b
  IC50: 2.15 µM

## O=c1c(O)c(-c2ccc(O)c(O)c2)oc2cc(O)cc(O)c12 [compound 405356, quercetin, reference compound]
IP6K1^wt [5]
  IC50: 12.1 µM
HEK293
  Cell number (%): 104.0 ± 1.4%
HepG2
  Cell number (%): 65.9 ± 16.9%
IP6K1^L210V [6]; Kinase-Glo, reverse reaction, dose-dependent reconfirmation
  IC50: 2.86 µM
IP6K1^L210V [6]; primary screen, IP6K1^L210V
  Z-score: -14.6
IP6K1^L210V [6]; primary screen, residual activity of IP6K1^L210V
  %Activity: 7.8%
